{"source": "patent US10544085B2", "about": "“Oils having antibacterial activity” (The United States of America, as Represented by the …, priority 2014, dated 2020)", "key": {"Streptococcus epidermis": {"system": "Streptococcus epidermis", "details": "cited from earlier work"}, "Enterococcus faecium": {"system": "Enterococcus faecium", "details": "cited from earlier work"}, "[1]": {"system": "three strains of Staphylococcus aureus", "details": "cited from earlier work"}, "E. faecalis": {"system": "E. faecalis", "details": "cited from earlier work"}, "Streptococcus agalactiae": {"system": "Streptococcus agalactiae", "test": "MIC, broth microdilution", "assay_type": "cell-based", "details": "HPLC fractions, serial two-fold dilutions approximately 128 μg/ml to approximately 2 μg/ml", "source_text": "The eight bacterial strains listed in Table 1 are used in the antibacterial activity assays. Streptococcus agalactiae and S. uberis (gifts from D. Donovan, ARS, USDA, Beltsville, Md.), Lactobacillus fermentum laboratory strain number 0315-1 (Bischoff, et al., Biotechnology and Bioengineering 103:117-122 (2009)), Enterococcus faecalis (ATCC Accession Number 29212), Bacillus subtilis MW10 (Bacillus Genetic Stock Center Accession Number 1A751), Staphylococcus aureus (ATCC Accession Number 29213), Escherichia coli (ATCC Accession Number 25922), and Pseudomonas aeruginosa (ATCC Accession Number 27853) are obtained from the indicated source. S. uberis, S. agalactiae, S. aureus, E. coli, and P. aeruginosa are cultured in tryptic soy broth (TSB) at 37° C. TSB contains the following: peptone from casein 17.0 g/L; peptone from soymeal 3.0 g/L; D(+)glucose 2.5 g/L; sodium chloride 5.0 g/L; and di-potassium hydrogen phosphate 2.5 g/L. E. faecalis are cultured in Bacto Brain Heart Infusion broth (BHI) (Becton Dickenson, Franklin Lakes, N.J.) at 37° C. L. fermentum are cultured in MRS broth at 37° C. MRS broth contains the following: peptone from casein 10.0 g/L; meat extract 8.0 g/L; yeast extract 4.0 g/L; D(+)-glucose 20.0 g/L; di-potassium hydrogen phosphate 2.0 g/L; Tween® 80 1.0 g/L; di-ammonium hydrogen citrate 2.0 g/L; sodium acetate 5.0 g/L; magnesium sulfate 0.2 g/L; and manganese sulfate 0.04 g/L. […]\nFractions 5-14 that were obtained from the HPLC fractionation (above) are assayed for antibacterial activity against S. agalactiae by the broth dilution method with serial two-fold dilutions of each component ranging from approximately 128 μg/ml to approximately 2 μg/ml. Fraction 12, containing mannitol-liamocin B1 had the lowest minimum inhibitory concentration (i.e. highest antibacterial activity) of the fractions."}, "S. agalactiae": {"system": "S. agalactiae", "test": "Disc diffusion assay of HPLC fractions", "assay_type": "cell-based, Streptococcus agalactiae", "details": "5 mg/ml, 10 μl per 6 mm disc, 37° C. overnight", "protocol": "Antibacterial activity for each fraction of the HPLC is measured qualitatively by disc diffusion assay. S. agalactiae at a density of 0.5 McFarland units are diluted 1:100 in PBS, and 20 μl are evenly spread on TSB agar media. Paper discs (6 mm diameter) are placed on surface. HPLC fractionated oils are dissolved to a concentration of 5 mg/ml in solvent (1:1 dimethylsulfoxide:2-butanone), and samples (10 μl) are applied to each disc. Plates are incubated at 37° C. overnight, and scored for a growth inhibition zone surrounding the disc, which indicates antibacterial activity. 5 mg/ml of purified oil is used as positive control, and acetonitrile solvent for HPLC is used as negative control."}}, "data": [{"molecule": "CCCCC[C@@H](O)C[C@@H](O)CC(=O)O[C@H](CCCCC)C[C@@H](O)CC(=O)O[C@H](CCCCC)C[C@@H](O)CC(=O)O", "note": "[Exophilin A]", "values": [{"measurement": "MIC", "setting": "Streptococcus epidermis", "result": "> 100", "unit": "µg/mL"}, {"measurement": "MIC", "setting": "Enterococcus faecium", "result": 12.5, "unit": "µg/mL"}, {"measurement": "MIC", "setting": "[1]", "result": 50, "unit": "µg/mL"}, {"measurement": "MIC", "setting": "E. faecalis", "result": 25, "unit": "µg/mL"}]}, {"molecule": "mannitol-liamocin A1 [Fraction 7]", "values": [{"measurement": "Minimum Inhibitory Concentration", "setting": "Streptococcus agalactiae; listed as 7", "result": ">128", "unit": "µg/mL"}]}, {"molecule": "mannitol-liamocin A1 [Fraction 8]", "values": [{"measurement": "Minimum Inhibitory Concentration", "setting": "Streptococcus agalactiae; listed as 8", "result": 64, "unit": "µg/mL"}, {"measurement": "growth inhibition zone surrounding the disc (antibacterial activity, qualitative)", "setting": "S. agalactiae", "result": "exhibit bactericidal activity"}]}, {"molecule": "mannitol-liamocin A2 [Fraction 9]", "values": [{"measurement": "Minimum Inhibitory Concentration", "setting": "Streptococcus agalactiae; listed as 9", "result": 128, "unit": "µg/mL"}, {"measurement": "growth inhibition zone surrounding the disc (antibacterial activity, qualitative)", "setting": "S. agalactiae", "result": "exhibit bactericidal activity"}]}, {"molecule": "mannitol-liamocin A2 [Fraction 10]", "values": [{"measurement": "Minimum Inhibitory Concentration", "setting": "Streptococcus agalactiae; listed as 10", "result": 64, "unit": "µg/mL"}]}, {"molecule": "mannitol-liamocin B1 [Fraction 11]", "values": [{"measurement": "Minimum Inhibitory Concentration", "setting": "Streptococcus agalactiae; listed as 11", "result": 64, "unit": "µg/mL"}, {"measurement": "growth inhibition zone surrounding the disc (antibacterial activity, qualitative)", "setting": "S. agalactiae", "result": "exhibit bactericidal activity"}]}, {"molecule": "mannitol-liamocin B1 [Fraction 12]", "values": [{"measurement": "Minimum Inhibitory Concentration", "setting": "Streptococcus agalactiae; listed as 12", "result": 16, "unit": "µg/mL"}]}, {"molecule": "mannitol-liamocin B2 [Fraction 13]", "values": [{"measurement": "Minimum Inhibitory Concentration", "setting": "Streptococcus agalactiae", "result": 128, "unit": "µg/mL"}, {"measurement": "growth inhibition zone surrounding the disc (antibacterial activity, qualitative)", "setting": "S. agalactiae", "result": "exhibit bactericidal activity"}]}]}
